Laboratory results published in patent publication EP0589039A1, “[…] DERIVATIVE AND PHARMACEUTICAL PREPARATION CONTAINING THE SAME” (Asahi Kasei Kogyo Kabushiki Kaisha, priority 1991, dated 1992).
Read-outs that look alike come from different tables or passages of the source.

How the values were obtained:
[1] = system: human breast cancer cell line MCF-7; assay: Growth inhibition of human breast cancer cell MCF-7 (Methylene Blue staining); format: cell-based; conditions: read-out: Growth inhibition of MCF-7 (human breast cancer cells) (IC₅₀)
Experimental: (Growth inhibition of human breast cancer cell MCF-7)
Effect of the compound of the present invention on breast cancer were examined using a human breast cancer cell line MCF-7. Predetermined dilutions of each compound of the present invention were added to a 96 well microtiter plate purchased from Falcon, and the cancer cells were inoculated into each well with a inoculum size of 10³ cells per well (10⁴ cells in the case of 100 nM estrogen (E)). The thus prepared plate was supplied with RPMI 1640 medium which has been supplemented with 5% of fetal bovine serum and further with a predetermined amount of estrogen, and incubated at 37°C for 6 days (3 days in the case of 100 nM estrogen) in the presence of 5% CO₂. Thereafter, viable cells were fixed with glutaraldehyde and stained with Methylene Blue to measure absorbance at 665 nm.

[2] = system: human breast cancer cultured cell line ZR-75-1; assay: Growth inhibition of human breast cancer cultured cell line ZR-75-1 (Methylene Blue staining); format: cell-based; conditions: 120 h, ZR-75-1, 10⁻⁹ mole of estrogen, 5 days, read-out: IC₅₀
Experimental: Effect of the triphenylalkene derivative of the present invention on breast cancer were examined using a human breast cancer cultured cell line ZR-75-1. Predetermined dilutions of each triphenylalkene derivative of the present invention were added to a 96 well microtiter plate purchased from Falcon, and the cancer cells were inoculated into each well with a inoculum size of 2 x 10³ cells per well. The thus prepared plate was supplied with RPMI 1640 medium which has been supplemented with 10% of fetal bovine serum and further with 10⁻⁹ mole of estrogen, and incubated at 37°C for 5 days in the presence of 5% CO₂. Thereafter, viable cells were fixed with glutaraldehyde, stained with Methylene Blue and then extracted with 0.33 N of hydrochloric acid to measure absorbance at 665 nm. […]

[3] = system: osteoporosis model rats; assay: Inhibition of decrease in bone density in ovariectomized osteoporosis model rats; format: in vivo, Fisher rats; conditions: 400 µg/kg orally once a day for 4 months
Experimental: Effect of the compound of the present invention to inhibit decrease in the bone density was evaluated using osteoporosis model rats. […] The remaining 8 rats were subjected to sham operation and used as a control group (Group C). […] After completion of the administration, the left side femur of each rat was excised to measure its volume (V) and dry weight (W) to calculate a bone density (D) based on a formula, D = W/V [formula] . […]

[4] = MCF7, 144 h, 1 nM added amount of E (estrogen), 6 days
[5] = MCF7, 72 h, 100 nM added amount of E (estrogen), 3 days, 10⁴ cells per well
[6] = MCF7, 144 h, 0.1 nM added amount of E (estrogen), 6 days

Row | Structure (SMILES) | IC50 [1, 4] [nM] | other results
1 | CCC(=C(c1ccc(OCC(CN(C)C)OC(C)=O)cc1)c1ccc(OC(C)=O)cc1)c1ccc2c(c1)OCO2 (stereo not drawn) [Compound 15, (E·Z)-1-[4-(3-dimethylamino-2-acetoxypropoxy)-phenyl]-1-(4-acetoxyphenyl)-2-(3,4-methylenedioxyphenyl)-1-butene] | 310 | –
2 | CCC(=C(c1ccc(C=NO)cc1)c1ccc(OCCN(C)C)cc1)c1ccccc1 [Compound 21, 2-[4-[1-(4-hydroxyiminomethylphenyl)-2-phenyl-1-butenyl]phenoxy]-N,N-dimethylethylamine] | 4600 | –
3 | CCC(=C(c1ccccc1)c1ccc(OCC(O)CNC2CCC2)cc1)c1ccccc1 (stereo not drawn) [Compound 41] | – | IC50 [1, 5]: 3400 nM
4 | CCNCC(O)COc1ccc(C(=C(CC)c2ccc3c(c2)OCO3)c2ccc(O)cc2)cc1 (stereo not drawn) [Compound 11, (E·Z)-1-[4-(3-ethylamino-2-hydroxypropoxy)-phenyl]-1-(4-hydroxyphenyl)-2-(3,4-methylenedioxyphenyl)-1-butene] | 50 | IC50 [2]: 1600 nM
5 | CCC(=C(c1ccc(OCCN(C)C)cc1)c1cccc(C=NO)c1)c1ccccc1 [Compound 23, 2-[4-[1-(3-hydroxyiminomethylphenyl)-2-phenyl-1-butenyl]phenoxy]-N,N-dimethylamine] | 6800 | –
6 | CCC(=C(c1ccc(O)cc1)c1ccc(OC(CN(C)C)CN(C)C)cc1)c1ccc2c(c1)OCO2 [Compound 18, (E·Z)-1-[4-(1,3-bisdimethylamino-2-propoxy)-phenyl]-1-(4-hydroxyphenyl)-2-(3,4-methylenedioxyphenyl)-1-butene] | 430 | –
7 | CCC(=C(c1ccc(O)cc1)c1ccc(OCC(O)CNC2CCCCC2)cc1)c1ccc2c(c1)OCO2 (stereo not drawn) [Compound 9, (E·Z)-1-[4-(3-cyclohexylamino-2-hydroxypropoxy)-phenyl]-1-(4-hydroxyphenyl)-2-(3,4-,methylenedioxyphenyl)-1-butene] | 460 | IC50 [2]: 950 nM
8 | CCC(=C(c1ccc(C=NOC)cc1)c1ccc(OCCN(C)C)cc1)c1ccccc1 [Compound 22, 2-[4-[1-(4-methoxyiminomethylphenyl)-2-phenyl-1-butenyl]phenoxy]-N,N-dimethylamine] | 7100 | –
9 | CCC(=C(c1ccccc1)c1ccc(OC(CN(CC)CC)CN(CC)CC)cc1)c1ccccc1 [Compound 36] | 1600 | –
10 | CCC(=C(c1ccc(OCOC)cc1)c1ccc(OCC(O)CN(C)C)cc1)c1ccc2c(c1)OCO2 (stereo not drawn) [Compound 32] | – | IC50 [1, 5]: 3800 nM
11 | CCC(=C(c1ccc(O)cc1)c1ccc(OCC(CN(C)C)OC(C)=O)cc1)c1ccc2c(c1)OCO2 (stereo not drawn) [Compound 16, (E·Z)-1-[4-(3-dimethylamino-2-acetoxypropoxy)-phenyl]-1-(4-hydroxyphenyl)-2-(3,4-methylenedioxyphenyl)-1-butene] | 160 | –
12 | CC/C(=C(\c1ccccc1)c1ccc(OCC(O)CNC(C)C)cc1)c1ccccc1 (stereo not drawn) [Compound 14, (Z)-1-[4-(3-isopropylamino-2-hydroxypropoxy)-phenyl]-1,2-diphenyl-1-butene] | – | IC50 [1, 6]: 410 nM
13 | CCC(=C(c1ccc(O)cc1)c1ccc(OCCNC2CCCCC2)cc1)c1ccc2c(c1)OCO2 [Compound 19, (E·Z)-1-[4-(2-cyclohexylaminoethoxy)phenyl]-1-(4-hydroxyphenyl)-2-(3,4-methylenedioxyphenyl)-1-butene] | 160 | –
14 | CCC(=C(c1ccccc1)c1ccc(OC(CN(C)C)CN(C)C)cc1)c1ccccc1 [Compound 35] | 1900 | –
15 | CCC(=C(c1ccc(O)cc1)c1ccc(OC(CN(CC)CC)CN(CC)CC)cc1)c1ccc2c(c1)OCO2 [Compound 37] | 60 | –
16 | CCC(=C(c1ccc(O)cc1)c1ccc(OCC(O)CNC2CCCCC2)cc1)c1ccccc1 (stereo not drawn) [Compound 8, (E·Z)-1-[4-(3-cyclohexylamino-2-hydroxypropoxy)-phenyl]-1-(4-hydroxyphenyl)-2-phenyl-1-butene] | 620 | IC50 [2]: 1400 nM
17 | CCC(=C(c1ccccc1)c1ccc(OCC(O)CNC2CCCCC2)cc1)c1ccc2c(c1)OCO2 (stereo not drawn) [Compound 38] | – | IC50 [1, 6]: 210 nM
18 | CCC(=C(c1ccc(O)cc1)c1ccc(OCC(O)CN(C)C)cc1)c1ccc2c(c1)OCO2 (stereo not drawn) [Compound 1, (E·Z)-1-[4-(3-dimethylamino-2-hydroxypropoxy)-phenyl]-1-(4-hydroxyphenyl)-2-(3,4-methylenedioxyphenyl)-1-butene] | – | inhibition of decrease in the bone density caused by the ovariectomy ([3]; compared with Tamoxifen): significantly inhibited decrease in the bone density; Bone density ([3]; left femur, D = W/V, ovariectomized rats): 1.0312
19 | CCC(=C(c1ccccc1)c1ccc(OCC(O)CNC2CCCC2)cc1)c1ccccc1 (stereo not drawn) [Compound 40] | – | IC50 [1, 5]: 2700 nM
20 | CCC(=C(c1ccc(O)cc1)c1ccc(OCC(O)CN(C)C2CCCCC2)cc1)c1ccc2c(c1)OCO2 (stereo not drawn) [Compound 4, (E·Z)-1-[4-(3-cyclohexylmethylamino-2-hydroxypropoxy)phenyl]-1-(4-hydroxyphenyl)-2-(3,4-methylenedioxyphenyl)-1-butene] | 210 | –
21 | CCNCC(O)COc1ccc(/C(=C(/CC)c2ccccc2)c2ccccc2)cc1 (stereo not drawn) [Compound 13, (Z)-1-[4-(3-ethylamino-2-hydroxypropoxy)phenyl]-1,2-diphenyl-1-butene] | 5400 | –
22 | CCC(=C(c1ccccc1)c1ccc(OCC(O)CN(C)CC)cc1)c1ccc2c(c1)OCO2 (stereo not drawn) [Compound 33] | – | IC50 [1, 6]: 600 nM
23 | CC/C(=C(\c1ccccc1)c1ccc(OCC(O)CNC2CCCCC2)cc1)c1ccccc1 (stereo not drawn) [Compound 12, (Z)-1-[4-(3-cyclohexylamino-2-hydroxypropoxy)-phenyl]-1,2-diphenyl-1-butene] | 1200 | IC50 [2]: 1400 nM
24 | CCC(=C(c1ccccc1)c1ccc(OCC(O)CNC2CCCCC2)cc1)c1ccccc1 (stereo not drawn) [Compound 39] | – | IC50 [1, 5]: 5600 nM

Continued, in another order:

Row | IC50 [1, 4] [nM] | Structure (SMILES) | other results
25 | 100 | CCC(=C(c1ccc(O)cc1)c1ccc(OCC(O)CN(C)CC)cc1)c1ccc2c(c1)OCO2 (stereo not drawn) [Compound 3, (E·Z)-1-[4-(3-ethylmethylamino-2-hydroxypropoxy)phenyl]-1-(4-hydroxyphenyl)-2-(3,4-methylenedioxyphenyl)-1-butene] | –
26 | 500 | CCC(=C(c1ccc(O)cc1)c1ccc(OCC(O)CNC)cc1)c1ccc2c(c1)OCO2 (stereo not drawn) [Compound 10, (E·Z)-1-[4-(3-methylamino-2-hydroxypropoxy)-phenyl]-1-(4-hydroxyphenyl)-2-(3,4-,methylenedioxyphenyl)-1-butene] | IC50 [2]: 870 nM
27 | 6300 | CCC(=C(c1ccccc1)c1ccc(OCC(O)CN(C)C)cc1)c1ccc2c(c1)OCO2 (stereo not drawn) [Compound 34] | IC50 [1, 5]: 10200 nM
28 | 60 | CCC(=C(c1ccc(O)cc1)c1ccc(OCC(O)CN(CC)CC)cc1)c1ccc2c(c1)OCO2 (stereo not drawn) [Compound 2, (E·Z)-1-[4-(3-diethylamino-2-hydroxypropoxy)-phenyl]-1-(4-hydroxyphenyl)-2-(3,4-methylenedioxyphenyl)-1-butene] | –
29 | 190 | CCC(=C(c1ccc(O)cc1)c1ccc(OCCN(C)C)cc1)c1ccc2c(c1)OCO2 [Compound 20, (E·Z)-1-[4-(2-dimethylaminoethoxy)phenyl]-1-(4-hydroxyphenyl)-2-(3,4-methylenedioxyphenyl)-1-butene] | –
30 | 3300 | CCC(=C(c1ccccc1)c1ccc(OCC(O)CN(C)C)cc1)c1ccccc1 (stereo not drawn) [Compound 30] | –
31 | 1800 | CC/C(=C(\c1ccccc1)c1ccc(OCC(O)CN(C)C)cc1)c1ccc2c(c1)OCO2 (stereo not drawn) [Compound 6, (Z)-1-[4-(3-dimethylamino-2-hydroxypropoxy)-phenyl]-1-phenyl-2-(3,4-methylenedioxyphenyl)-1-butene] | –
32 | 210 | CCC(=C(c1ccc(O)cc1)c1ccc(OCC(O)CN(C)C)cc1)c1ccccc1 (stereo not drawn) [Compound 7, (E·Z)-1-[4-(3-dimethylamino-2-hydroxypropoxy)-phenyl]-1-(4-hydroxyphenyl)-2-phenyl-1-butene] | –
